Measurements published in ChEMBL document CHEMBL1147876, “Synthesis of novel 3-amino-2-(4-chloro-2-mercaptobenzenesulfonyl)-guanidine derivatives as potential antitumor agents” (Eur J Med Chem, 2007).
Active and inactive are the calls of the source.

How the values were obtained:
Format in all cases: functional, cell-based
SF-268 = assay: Anticancer activity against human SF268 cells at 100 uM
NCI-H460 = assay: Anticancer activity against human NCI-H460 cells at 100 uM
MCF7 = assay: Anticancer activity against human MCF7 cells at 100 uM

Measured: Activity

C#CCN/C(=N/S(=O)(=O)c1cc(C)c(Cl)cc1SCC(=O)c1ccccc1)NN
inactive: all assays above

C#CCN/C(=N/S(=O)(=O)c1cc(C)c(Cl)cc1S)NN
inactive: all assays above

C=CCN/C(=N/S(=O)(=O)c1cc(C(=O)Nc2ccc(Cl)cc2)c(Cl)cc1SC)NN
inactive: all assays above

C#CCN/C(=N/S(=O)(=O)c1cc(C)c(Cl)cc1SCC(N)=O)NN
inactive: all assays above

C#CCN/C(=N/S(=O)(=O)c1cc(C(=O)Nc2ccccc2)c(Cl)cc1S)NN
inactive: all assays above

C#CCN/C(=N/S(=O)(=O)c1cc(C)c(Cl)cc1SCC#N)NN
inactive: all assays above

C=CCN/C(=N/S(=O)(=O)c1cc(C)c(Cl)cc1SC)N/N=C/c1ccc([N+](=O)[O-])o1
inactive: all assays above

C=CCN/C(=N/S(=O)(=O)c1cc(C(=O)Nc2ccccc2)c(Cl)cc1SCC(N)=O)NN
inactive: all assays above
